Test results from publication PMC11641860 (International Journal of Molecular Sciences, 2024).

Legend:
Caco-2 cells = assay: cells; assay type: cell-based; conditions: Homo sapiens; Caco-2, treated for 24 h, mean (SE); read-out: calculated IC50
Procedure: (§1) To evaluate cell viability, an MTT assay was performed. […] Cell viability was directly proportional to registered absorbance and was expressed as relative viability with respect to vehicle-treated cells.

HEK 293 cells = assay: cells; assay type: cell-based; conditions: Homo sapiens, HEK293; HEK 293, treated for 24 h, mean (SE); read-out: calculated IC50
Procedure: as §1

HaCat cells = assay: cells; assay type: cell-based; conditions: Homo sapiens, treated for 24 h, mean (SE), read-out: calculated IC50
Procedure: as §1

HepG2 cells [1] = assay: cells; assay type: cell-based; conditions: Homo sapiens; HepG2, treated for 24 h, mean (SE); read-out: calculated IC50
Procedure: as §1

MRC5 cells = assay: cells; assay type: cell-based; conditions: Homo sapiens; MRC5, treated for 24 h, mean (SE); read-out: calculated IC50
Procedure: as §1

p53 = assay: Western blot of p53; assay type: cell-based, human; conditions: HepG2, 24 h, higher concentrations used
Procedure: (§2) Western blot analyses were performed to detect protein levels and the expression of several proteins after treatments with 4-OP. After treatments, cells were mechanically harvested and lysed in a buffer containing the following: 20 mM Tris-HCl, pH 7.5, 150 mM NaCl, 1 mM EDTA, 1 mM dithiothreitol, 0.1% sodium dodecyl sulfate, 1% Triton X-100, 1 mM orthovanadate and an inhibitor cocktail (all from Merck). The protein mixtures were resolved in a polyacrylamide denaturant gel and then electrotransferred to a polyvinylidene difluoride (PVDF) membrane (Microtech, Naples, Italy) by using the Trans-Blot Turbo Transfer System (Bio-Rad Laboratories, Milan, Italy). After a blocking step with 5% skimmed milk in Tris-buffered saline (TBS), membranes were incubated with the following primary antibodies, diluted 1:1000 in T-TBS-1% milk: mouse anti-p53 (Santa Cruz, CA, USA); mouse anti-GRP78 (Invitrogen, Milan, Italy); rabbit anti-LC3 (Invitrogen); mouse anti-caspase 3 (Invitrogen); mouse anti-p62 (Invitrogen); rabbit anti-SOD (Elabscience, Houston, TX, USA); rabbit anti-CAT (Elabscience). For normalization, a mouse anti-GAPDH (Santa Cruz) diluted 1:4000 in T-TBS-1% milk was used.

HepG2 cells [2] = assay: Apoptosis: cleaved caspase 3 Western blot and TUNEL assay; assay type: cell-based, human; conditions: HepG2, caspase-3 8 h, TUNEL 24 h
Procedure: as §2
Microscope observation and image acquisition were performed as described above.

XBP1 = XBP1 splicing detection by conventional PCR; assay type: cell-based, human; conditions: HepG2, 4 h, 100 μM
Procedure: To obtain cDNA, 1 μg of RNA was retro-transcribed employing the QuantiTect Reverse Transcription Kit (Qiagen, Milan, Italy). Finally, a conventional PCR was performed to amplify the unspliced and the spliced form for XBP1, with the following primers: 5′-[…]-3′ and 5′-[…]-3′, as previously reported. Amplified cDNA was run on a 2.5% agarose gel and stained with ethidium bromide.

GRP78 [3] = assay: Western blot of GRP78 in HepG2 cells; assay type: cell-based, human; conditions: HepG2, 24 h, higher induction at 100 μM
Procedure: as §2

GRP78 [4] = assay: Western blot of GRP78 in MRC5 cells; assay type: cell-based, human; conditions: MRC5, 24 h
Procedure: as §2

GRP78 [5] = assay: Western blot of GRP78 in Caco-2 cells; assay type: cell-based, human; conditions: Caco-2, 24 h
Procedure: as §2

p62, LC3-II = assay: Western blot of autophagic markers p62 and LC3-II; assay type: cell-based, human
Procedure: as §2

HepG2 cells [6] = assay: LC3 immunofluorescence staining; assay type: cell-based, human; conditions: HepG2, 24 h, compared with vehicle
Procedure: Then, coverslips were incubated for 1 h with the anti-LC3 rabbit antibody (1:100, in 1% bovine albumin serum) and then with an anti-rabbit tetramethylrhodamine-conjugated antibody (1:100, in 0.1% bovine serum albumin) (Thermo Fisher Scientific). After washing, coverslips were mounted with Mowiol and observed with an Olympus CKX41 fluorescent microscope (Olympus Italia srl, Segrate, Italy) and processed with the Olympus CKX41 software (cellSens Dimension 1.5).

CAT, SOD = assay: Western blot of CAT and SOD; assay type: cell-based, human
Procedure: as §2

type 2 transglutaminase = assay: Type 2 transglutaminase activity in Caco-2 cells in Ca2+-free condition; assay type: cell-based, human; conditions: Caco-2, Ca2+-free condition, preliminary
From the text: It has often been reported that apoptosis induced by EDCs can be caused by an unsolved ER-stress.

Q: `CCCCCCCCCc1ccc(O)cc1` [4-NP, 4-nonylphenol] was tested. Which IC50 (Caco-2 cells) did it give?
A: 93.3 µM

Q: What about the IC50 (HEK 293 cells) of the same compound?
A: 62.6 µM

Q: What about the IC50 (HaCat cells) of the same compound?
A: 77.4 µM

Q: And the IC50 (HepG2 cells [1])?
A: 83.3 µM

Q: What about the IC50 (MRC5 cells) of the same compound?
A: 75.8 µM

Q: How did the p53 expression (p53) turn out when `CCCCCCCCc1ccc(O)cc1` [4-OP, 4-octylphenol] was run?
A: decreased

Q: What about the “apoptosis (cleaved caspase 3, chromatin fragmentation)” value (HepG2 cells [2]) of the same compound?
A: able to induce apoptosis

Q: What about the XBP1 spliced form (XBP1) of the same compound?
A: splicing was clear

Q: What about the GRP78 expression (GRP78 [3]) of the same compound?
A: increase in a dose-dependent manner

Q: What about the GRP78 expression (GRP78 [4]) of the same compound?
A: markedly induced

Q: And the GRP78 expression (GRP78 [5])?
A: less evident

Q: And the p62 level (p62, LC3-II; HepG2, 4 h)?
A: decreased

Q: And the “LC3-II level on adding Baf A1” value (p62, LC3-II; HepG2, 4 h 4-OP then further 20 h Baf A1 50 nM)?
A: further accumulation of LC3-II

Q: What about the LC3-II level (p62, LC3-II; HepG2, 24 h) of the same compound?
A: increased

Q: What about the “autophagosomes (LC3 perinuclear puncta)” value (HepG2 cells [6]) of the same compound?
A: accumulation of autophagosomes

Q: What about the CAT level (CAT, SOD; HepG2, 4 h) of the same compound?
A: did not vary

Q: And the SOD level (CAT, SOD; HepG2, 4 h, 100 μM)?
A: reduction

Q: And the SOD expression level (CAT, SOD; HepG2, 18 h, 25 μM, vs vehicle-treated cells)?
A: lower

Q: And the SOD expression level (CAT, SOD; HepG2, 18 h, 50 μM)?
A: increased

Q: And the CAT protein level (CAT, SOD; HepG2, 18 h, 50 μM, compared to the control)?
A: significantly more expressed

Q: Which “increase of transglutaminase activity” value (type 2 transglutaminase) does the source give for `C[C@H](CCC(=O)O)C[C@H](C)C[C@H](C)C(=O)/C=C(\O)[C@H](C)C[C@H](C)C/C=C/[C@@H](C)[C@@H](O)[C@@H](C)[C@@H](O)C[C@@H]1CC[C@@](C)([C@H]2CC[C@@](C)([C@@H](C)O)O2)O1` [ionomycin] here?
A: did not increase
